Laboratory results reported in ChEMBL document CHEMBL1201862, “PubChem BioAssay data set” (2004).
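Step 1: Grow cells in 96-well plates. Step 2: Expose to compound for 48 hours at 5 concentrations. Step 3: Interpolate endpoints linearly; if unreached, use highest concentration. GI50 is the concentration that inhibits growth by half.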 Calls of active or inactive are those of the source. No stated cut-off is given here; in the data, active = GI50 up to about 1.1 µM and inactive = higher.

Legend:
Assay in all cases: inhibition of tumour cell growth, NCI panel, 48 h
A498 = test system: A498
SK-MEL-28 = test system: SK-MEL-28
HCC 2998 = test system: HCC 2998
HT-29 = test system: HT-29
ACHN = test system: ACHN
SN12C = test system: SN12C
U-251 = test system: U-251
SR = test system: SR
OVCAR-8 = test system: OVCAR-8
HOP-62 = test system: HOP-62
IGROV-1 = test system: IGROV-1
HOP-92 = test system: HOP-92
HL-60 = test system: HL-60
MDA-MB-435 = test system: MDA-MB-435
SW-620 = test system: SW-620
NCI-H226 = test system: NCI-H226
NCI/ADR-RES = test system: NCI/ADR-RES
M14 = test system: M14
NCI-H522 = test system: NCI-H522
HCT-15 = test system: HCT-15
OVCAR-5 = test system: OVCAR-5
UO-31 = test system: UO-31
DU-145 = test system: DU-145
MDA-MB-231 = test system: MDA-MB-231
T47D = test system: T47D
MDA-N = test system: MDA-N
HCT-116 = test system: HCT-116
SK-OV-3 = test system: SK-OV-3
SK-MEL-5 = test system: SK-MEL-5
TK-10 = test system: TK-10
SNB-19 = test system: SNB-19
CAKI-1 = test system: CAKI-1
NCI-H23 = test system: NCI-H23
COLO 205 = test system: COLO 205
UACC-257 = test system: UACC-257
NCI-H460 = test system: NCI-H460
LOX IMVI = test system: LOX IMVI
A549 = test system: A549
MOLT-4 = test system: MOLT-4
MCF7 = test system: MCF7
SF-295 = test system: SF-295
PC-3 = test system: PC-3
OVCAR-4 = test system: OVCAR-4
K562 = test system: K562
OVCAR-3 = test system: OVCAR-3
RPMI-8226 = test system: RPMI-8226
SK-MEL-2 = test system: SK-MEL-2
CCRF-CEM = test system: CCRF-CEM
Hs-578T = test system: Hs-578T
EKVX = test system: EKVX
RXF 393 = test system: RXF 393
KM12 = test system: KM12
SF-268 = test system: SF-268
SNB-75 = test system: SNB-75
UACC-62 = test system: UACC-62
Malme-3M = test system: Malme-3M
SF-539 = test system: SF-539
786-0 = test system: 786-0

For `COP(=O)(O)C(N)Cc1c[nH]c2ccccc12` (stereo unspecified), the GI50 (A498) was > 100 µM (inactive), the GI50 (SK-MEL-28) was > 100 µM (inactive) and the GI50 (HCC 2998) was > 100 µM (inactive). The GI50 (HT-29) was > 100 µM (inactive), the GI50 (ACHN) was > 100 µM (inactive) and the GI50 (SN12C) was > 100 µM (inactive). For the same molecule, the GI50 (U-251) was > 100 µM (inactive), the GI50 (SR) was > 100 µM (inactive) and the GI50 (OVCAR-8) was > 100 µM (inactive). The GI50 (HOP-62) was > 100 µM (inactive), the GI50 (IGROV-1) was > 100 µM (inactive) and the GI50 (HOP-92) was > 100 µM (inactive). The GI50 (HL-60) was > 10 µM (inactive), the GI50 (MDA-MB-435) was > 100 µM (inactive) and the GI50 (SW-620) was > 100 µM (inactive). For the same molecule, the GI50 (NCI-H226) was > 100 µM (inactive), the GI50 (NCI/ADR-RES) was > 100 µM (inactive) and the GI50 (M14) was > 100 µM (inactive). The GI50 (NCI-H522) was > 100 µM (inactive), the GI50 (HCT-15) was greater than 100 µM and the GI50 (OVCAR-5) was > 100 µM (inactive). The GI50 (UO-31) was > 100 µM (inactive), the GI50 (DU-145) was > 100 µM (inactive) and the GI50 (MDA-MB-231) was > 100 µM (inactive). The GI50 (T47D) was > 100 µM (inactive), the GI50 (MDA-N) was > 100 µM (inactive) and the GI50 (HCT-116) was > 100 µM (inactive). The GI50 (SK-OV-3) was > 100 µM (inactive), the GI50 (SK-MEL-5) was > 100 µM (inactive) and the GI50 (TK-10) was > 100 µM (inactive). The GI50 (SNB-19) was > 100 µM (inactive), the GI50 (CAKI-1) was > 100 µM (inactive) and the GI50 (NCI-H23) was > 100 µM (inactive). The GI50 (COLO 205) was > 100 µM (inactive), the GI50 (UACC-257) was > 100 µM (inactive) and the GI50 (NCI-H460) was > 100 µM (inactive). For the same molecule, the GI50 (LOX IMVI) was > 100 µM (inactive), the GI50 (A549) was > 100 µM (inactive) and the GI50 (MOLT-4) was > 100 µM (inactive). The GI50 (MCF7) was > 100 µM (inactive), the GI50 (SF-295) was > 100 µM (inactive) and the GI50 (PC-3) was > 100 µM (inactive). The GI50 (OVCAR-4) was > 100 µM (inactive), the GI50 (K562) was > 100 µM (inactive) and the GI50 (OVCAR-3) was > 100 µM (inactive). For the same molecule, the GI50 (RPMI-8226) was > 100 µM (inactive), the GI50 (SK-MEL-2) was > 100 µM (inactive) and the GI50 (CCRF-CEM) was > 100 µM (inactive). The GI50 (Hs-578T) was > 100 µM (inactive).

In the case of `O=c1c2c(F)c(F)c(F)c(F)c2sc2nccn12`, the GI50 (A498) is reported as 19.2 µM (inactive), the GI50 (SK-MEL-28) is reported as 23.4 µM (inactive) and the GI50 (HCC 2998) is reported as 17.5 µM (inactive). For the same molecule, the GI50 (HT-29) was 16.9 µM (inactive), the GI50 (ACHN) was 16.4 µM (inactive) and the GI50 (SN12C) was 18.5 µM (inactive). For the same molecule, the GI50 (U-251) was 14.9 µM (inactive), the GI50 (SR) was 3.27 µM (inactive) and the GI50 (OVCAR-8) was 19.2 µM (inactive). The GI50 (HOP-62) was 22.4 µM (inactive), the GI50 (IGROV-1) was 17.4 µM (inactive) and the GI50 (EKVX) was 24.7 µM (inactive). The GI50 (HOP-92) was 19.9 µM (inactive), the GI50 (RXF 393) was 17.7 µM (inactive) and the GI50 (KM12) was 17.1 µM (inactive). For the same molecule, the GI50 (HL-60) was 2.06 µM (inactive), the GI50 (MDA-MB-435) was 14.9 µM (inactive) and the GI50 (SW-620) was 17.3 µM (inactive). For the same molecule, the GI50 (NCI-H226) was 25.2 µM (inactive), the GI50 (SF-268) was 18 µM (inactive) and the GI50 (NCI/ADR-RES) was 26.8 µM (inactive). For the same molecule, the GI50 (M14) was 17.6 µM (inactive), the GI50 (NCI-H522) was 18.9 µM (inactive) and the GI50 (HCT-15) was 12.4 µM. The GI50 (SNB-75) was 22.5 µM (inactive), the GI50 (OVCAR-5) was 20.4 µM (inactive) and the GI50 (UACC-62) was 14.7 µM (inactive). The GI50 (DU-145) was 19.9 µM (inactive), the GI50 (MDA-MB-231) was 20.3 µM (inactive) and the GI50 (T47D) was 0.745 µM (active). For the same molecule, the GI50 (MDA-N) was 14.4 µM (inactive), the GI50 (HCT-116) was 13.9 µM (inactive) and the GI50 (SK-OV-3) was 18.9 µM (inactive). The GI50 (SK-MEL-5) was 18.5 µM (inactive), the GI50 (TK-10) was 18.4 µM (inactive) and the GI50 (SNB-19) was 19.8 µM (inactive). The GI50 (CAKI-1) was 19 µM (inactive), the GI50 (NCI-H23) was 15.5 µM (inactive) and the GI50 (COLO 205) was 17.6 µM (inactive). The GI50 (UACC-257) was 13 µM (inactive), the GI50 (Malme-3M) was 17.3 µM (inactive) and the GI50 (NCI-H460) was 11.2 µM (inactive). The GI50 (LOX IMVI) was 12.3 µM (inactive), the GI50 (A549) was 19.5 µM (inactive) and the GI50 (MOLT-4) was 3.01 µM (inactive). For the same molecule, the GI50 (MCF7) was 17.4 µM (inactive), the GI50 (SF-295) was 17.9 µM (inactive) and the GI50 (PC-3) was 18.4 µM (inactive). The GI50 (OVCAR-4) was 19.5 µM (inactive), the GI50 (K562) was 6.55 µM (inactive) and the GI50 (OVCAR-3) was 14.4 µM (inactive). For the same molecule, the GI50 (RPMI-8226) was 16.7 µM (inactive), the GI50 (SK-MEL-2) was 19.1 µM (inactive) and the GI50 (SF-539) was 17.5 µM (inactive). The GI50 (CCRF-CEM) was 11.3 µM (inactive), the GI50 (Hs-578T) was 31.3 µM (inactive) and the GI50 (786-0) was 15.2 µM (inactive).
